{"source": "patent US12195427B2", "about": "“MASP-2 inhibitors and methods of use” (priority 2018, dated 2025)", "key": {"MASP-2 (CCP1-CCP2-SP)": {"target": "MASP-2 (CCP1-CCP2-SP) (Homo sapiens (Human), UniProt O00187)", "sequence (O00187 445-686)": "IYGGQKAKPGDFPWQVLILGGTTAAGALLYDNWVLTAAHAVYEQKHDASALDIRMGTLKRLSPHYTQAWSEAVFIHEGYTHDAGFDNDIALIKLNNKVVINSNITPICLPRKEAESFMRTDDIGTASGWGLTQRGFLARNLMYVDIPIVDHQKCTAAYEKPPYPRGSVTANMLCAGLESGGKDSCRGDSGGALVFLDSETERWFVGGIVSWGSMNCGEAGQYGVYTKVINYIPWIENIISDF", "assay": "Enzymatic Assay for MASP-2 (fluorogenic substrate)", "format": "biochemical"}, "MASP-2 CCP2-SP": {"target": "MASP-2 CCP2-SP (Homo sapiens (Human), UniProt O00187)", "sequence (O00187 445-686)": "as above", "sequence (O00187 364-432 partner)": "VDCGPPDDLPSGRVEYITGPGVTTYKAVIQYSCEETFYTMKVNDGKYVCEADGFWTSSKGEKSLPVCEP", "assay": "MASP-2 co-crystallization, X-ray crystallography and structure analysis (H-bonds, van der Waals contacts)", "set-up": "van der Waals contact distance, MASP-2 HIS 483 atom CD2 / van der Waals contact distance, MASP-2 HIS 483 atom NE2 / van der Waals contact distance, SER 654 C to compound atom / van der Waals contact distance, SER 654 O to compound atom / van der Waals contact distance, TRP 655 C to compound atom / van der Waals contact distance, MASP-2 GLY 528 atom CA / van der Waals contact distance TRP 655 atom CZ3 / van der Waals contact distance TRP 655 atom N / van der Waals contact distance TRP 655 atom CE3 / van der Waals contact distance GLY 656 atom C / van der Waals contact distance GLY 656 atom CA / van der Waals contact distance GLY 656 atom O / van der Waals contact distance, MASP-2 TYR 607 atom CD1 / van der Waals contact distance, MASP-2 PRO 606 atom O / d(C3,CA1) / d(CA1,N1)2 / d(H4,O1) / d(H4,O2) / d(O1,O2) / d(CA1,O2) / d(CA6,O1) / d(CA6,O2) / d(CA1,C5) / d(O2,H3) / d(N2,C2) / d(CA5,N2) / d(N2,C4) / d(N2,C6) / d(N2,CA3) / d(N2,O3) / d(O4,H2): unit not given beside the values", "summary_of_the_method": "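Human MASP-2 CCP2-SP, untagged or 6His-tagged, was expressed in E. coli and crystallized. Crystals were soaked with inhibitor in crystallization solution, flash-cooled in liquid nitrogen, and diffracted with synchrotron X-rays (wavelength 1.0). Structures were solved by molecular replacement from 1Q3X and partially refined.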"}}, "note": "Structures can show the parent of a compound that is named as a salt.", "data": [{"smiles": "Cc1cccc(CNC(=O)[C@H](C)NC(=O)[C@H]2C[C@H](Cc3ccccc3)CN2)c1-n1ncnn1", "note": "[compound 1437, (2R,4S)-4-Benzyl-N—((S)-1-((3-methyl-2-(2H-tetrazol-2-yl)benzyl)amino)-1-oxopropan-2-yl)pyrrolidine-2-carboxamide]", "values": [{"measurement": "Ki", "setting": "MASP-2 (CCP1-CCP2-SP)", "value": "500 to 2500", "unit": "nM"}]}, {"smiles": "Cc1nc(N)ccc1CNC(=O)[C@H](C)NC(=O)[C@H]1C[C@@H](c2cccc(CN)c2)CN1", "note": "[compound 1291, (2R,4S)—N—((S)-1-(((6-Amino-2-methylpyridin-3-yl)methyl)amino)-1-oxopropan-2-yl)-4-(3-(aminomethyl)phenyl)pyrrolidine-2-carboxamide]", "values": [{"measurement": "Ki", "setting": "MASP-2 (CCP1-CCP2-SP)", "value": "500 to 2500", "unit": "nM"}]}, {"smiles": "C[C@H](NC(=O)[C@H]1C[C@@H](c2ccccc2)CN1)C(=O)NCc1ccc2c(N)nccc2c1", "note": "[compound 1089]", "values": [{"measurement": "Ki", "setting": "MASP-2 (CCP1-CCP2-SP)", "value": "< 500", "unit": "nM"}, {"measurement": "H-bond distance to MASP-2 ASP 627 atom OD2", "setting": "MASP-2 CCP2-SP; Table A1 (H-Bonds), ASP 627 OD2", "value": 2.8}, {"measurement": "H-bond distance to MASP-2 GLY 656 atom N", "setting": "MASP-2 CCP2-SP; Table A1 (H-Bonds), GLY 656 N", "value": 3.3}, {"measurement": "H-bond distance to MASP-2 GLY 656 atom O", "setting": "MASP-2 CCP2-SP; Table A1 (H-Bonds), GLY 656 O", "value": 2.82}, {"measurement": "H-bond distance to MASP-2 SER 654 atom O", "setting": "MASP-2 CCP2-SP; Table A1 (H-Bonds), SER 654 O", "value": 2.93}, {"measurement": "H-bond distance to MASP-2 SER 657 atom O", "setting": "MASP-2 CCP2-SP; Table A1 (H-Bonds), SER 657 O", "value": 2.93}, {"measurement": "van der Waals contact distance, MASP-2 HIS 483 atom CD2", "setting": "MASP-2 CCP2-SP; Table A2-1", "value": 3.71}, {"measurement": "van der Waals contact distance, MASP-2 HIS 483 atom NE2", "setting": "MASP-2 CCP2-SP; Table A2-1", "value": 3.83}, {"measurement": "van der Waals contact distance, MASP-2 PRO 606 atom O", "setting": "MASP-2 CCP2-SP; Table A2-4", "value": 3.4}, {"measurement": "van der Waals contact distance, SER 654 O to compound atom", "setting": "MASP-2 CCP2-SP; Table A2-12", "value": 3.57}, {"measurement": "van der Waals contact distance TRP 655 atom CE3", "setting": "MASP-2 CCP2-SP; Table A2-13, MASP-2 TRP 655 CE3, compound atom in line below", "value": 3.59}, {"measurement": "van der Waals contact distance GLY 656 atom O", "setting": "MASP-2 CCP2-SP; Table A2-14, MASP-2 GLY 656 O", "value": 2.95}, {"measurement": "van der Waals contact distance SER 657 atom C", "setting": "MASP-2 CCP2-SP; Table A2-14, MASP-2 SER 657 C, columns c12-c13 (inferred)", "value": 3.86}]}, {"smiles": "N=C(N)c1ccc2[nH]c(Cc3ccccn3)nc2c1", "note": "[compound 2002, 2-(Pyridin-2-ylmethyl)-1H-benzo[d]imidazole-5-carboximidamide Dihydrochloride]", "values": [{"measurement": "MASP-2 versus thrombin selectivity", "setting": "MASP-2 (CCP1-CCP2-SP); +Zn", "value": "++ (+Zn) (5.0 to 25-fold)"}]}]}
